From ChEMBL document CHEMBL3301361, “Experimental in vitro DMPK and physicochemical data on a set of publicly disclosed compounds” come the findings set out here.

≈ marks a conversion by molar mass, not a printed value.

Series [1] can be described thus: physchem. The note with it: octan-1-ol/water.
The nature of series [2]: physchem. The note with it: pH 7.4 buffer.

Take `Cc1sc2ncnc(SCC(=O)N3CCCC3)c2c1C`: the logD (in general, lipophilicity at a set pH, counting ionised and neutral species) in series [1] (pH 7.4, LogD7.4) stood at 2.89. Further, the thermodynamic solubility (usually solubility found after equilibrating the solid with the medium) in series [2] stood at 100 µM (≈ 30.7 µg/mL).

`COc1cc(N2CCN(C(C)=O)CC2)ccc1Nc1ncc(C)c(-c2cnc3ccccn23)n1`: in series [1] (pH 7.4, LogD7.4), the logD is 2.9. In addition, in series [2], the thermodynamic solubility amounted to 5 µM (≈ 2.29 µg/mL).

In series [1] (pH 7.4, LogD7.4), `Cc1ncc(-c2ccnc(Nc3ccc(S(N)(=O)=O)cc3)n2)n1C` gave a pH-dependent lipophilicity (logD) of 1.6. Also, the thermodynamic solubility in series [2] worked out at 36.3 µM (≈ 12.5 µg/mL).

Compound `Cc1ccccc1Nc1ncnc2ccccc12` yielded a logD in series [1] (pH 7.4, LogD7.4) of 2.85. Moreover, the thermodynamic solubility in series [2] came out at 417 µM (≈ 98.1 µg/mL).

For the compound `O=C(Nc1nc2c(=O)[nH]cnc2s1)c1ccccc1`, the log distribution coefficient (logD) in series [1] (pH 7.4, LogD7.4) worked out at 1.94. For the same compound, the thermodynamic solubility in series [2] is 7.4 µM (≈ 2.01 µg/mL).

`O=C(Nc1ccc(N2CCOCC2)cc1)c1nnc(NC(=O)C2(c3ccc(Cl)cc3)CCC2)o1` returned a logD in series [1] (pH 7.4, LogD7.4) of 3.2. Moreover, in series [2], the thermodynamic solubility came to 66.1 µM (≈ 31.9 µg/mL).

`CC(C)(C)c1cc2nc3c(c(O)n2n1)CN(Cc1ccccc1)C3=O` registered a logD in series [1] (pH 7.4, LogD7.4) of 1.9. For the same compound, the thermodynamic solubility in series [2] is 25.1 µM (≈ 8.44 µg/mL).

In series [1] (pH 7.4), `CC12CCC(=O)C=C1CCC1C2CCC2(C)C(O)CCC12` (centres undefined) returned a log distribution coefficient (logD) of 3.3. Also, the solubility (thermodynamic) in series [2] stood at 40.7 µM (≈ 11.7 µg/mL).

As for `c1ccc(Nc2ccnc3ccccc23)cc1`, the logD in series [1] (pH 7.4, LogD7.4) amounted to 2.78. Also, in series [2], the thermodynamic solubility came to 324 µM (≈ 71.3 µg/mL).

Compound `COc1ccc2c(Oc3ccc(CC(=O)Nc4n[nH]c(C)c4C)c(OC)c3)ccnc2c1` yielded a logD in series [1] (pH 7.4, LogD7.4) of 3.78. For the same compound, the solubility (thermodynamic) in series [2] was 8.3 µM (≈ 3.59 µg/mL).

In the case of `COc1ccc(-c2csc(N(CCCN3CCOCC3)C(=O)c3ccco3)n2)cc1`, the logD in series [1] (pH 7.4, LogD7.4) worked out at 3.34. In series [2], the solubility (thermodynamic) stood at 1.1 µM (≈ 0.47 µg/mL).

Compound `COc1ccc(Cc2nccc3cc(OC)c(OC)cc23)cc1OC` [PAPAVERINE] yielded a logD in series [1] (pH 7.4) of 2.81. For the same compound, the solubility (thermodynamic) in series [2] stood at 38 µM (≈ 12.9 µg/mL).

Regarding `O=C(COc1ccccc1)c1ccccc1`, the logD in series [1] (pH 7.4, LogD7.4) was 2.87. The compound also gave a thermodynamic solubility in series [2] of 170 µM (≈ 36 µg/mL).

The compound `O=C(NCCNC(=O)c1cn(-c2ccccc2)nc1C(F)(F)F)c1ccc(Cl)cn1` returned a logD in series [1] (pH 7.4, LogD7.4) of 3.8. Moreover, the solubility (thermodynamic) in series [2] worked out at 3.4 µM (≈ 1.49 µg/mL).

In series [1] (pH 7.4, LogD7.4), `Cc1ncc(C(N)=O)nc1-c1ccc([C@H]2CC[C@H](C(=O)O)CC2)cc1` had a logD of 0.22. In series [2], this compound came in with a solubility (thermodynamic) of 1230 µM (≈ 418 µg/mL).

Turning to `C[C@@H](Oc1cccc2ncnc(Nc3ccc4c(cnn4Cc4ccccn4)c3)c12)C(=O)N1CCOCC1`, the logD in series [1] (pH 7.4, LogD7.4) came out at 2.82. This compound also registered a solubility (thermodynamic) in series [2] of 95.5 µM (≈ 48.7 µg/mL).

`O=C(Nc1ccc(N2CCOCC2)cc1)c1nnc(Nc2ccccc2)o1` displayed a logD in series [1] (pH 7.4, LogD7.4) of 3.15. The compound also displayed a solubility (thermodynamic) in series [2] of 1.7 µM (≈ 0.621 µg/mL).

The compound `Cc1nc2nc(-c3cccnc3)nn2c(O)c1Cc1ccccc1` displayed a logD in series [1] (pH 7.4, LogD7.4) of 1.52. The compound also had a thermodynamic solubility in series [2] of 29.5 µM (≈ 9.36 µg/mL).

Take `Cn1c(=O)c2[nH]c(-c3cccnc3)nc2n(C)c1=O`: in series [1] (pH 7.4, LogD7.4), the logD is 0.7. Further, in series [2], the solubility (thermodynamic) amounted to 219 µM (≈ 56.3 µg/mL).

For `Cc1ccc(Oc2ccnc(Nc3ccc(S(N)(=O)=O)cc3)c2)c(C)n1`, the logD in series [1] (pH 7.4, LogD7.4) is 2.47. The same compound returned a thermodynamic solubility in series [2] of 4.2 µM (≈ 1.56 µg/mL).

With `Cc1nc(C)c(C(=O)N[C@@H](Cc2cccc(Cl)c2)C(=O)NCC#N)s1`, the log distribution coefficient (logD) in series [1] (pH 7.4, LogD7.4) was 2. In addition, the solubility (thermodynamic) in series [2] came out at 57.5 µM (≈ 21.7 µg/mL).

Take `Nc1nc(-c2ccccc2)cs1`: the logD in series [1] (pH 7.4, LogD7.4) turned out to be 2.43. Also, the solubility (thermodynamic) in series [2] came to 832 µM (≈ 147 µg/mL).

`CC(=O)Nc1cc(CN2C(=O)N(c3ccc(SC(F)(F)F)cc3)C(=O)C2(C)C)ccn1` yielded a logD in series [1] (pH 7.4, LogD7.4) of 2.93. For the same compound, in series [2], the thermodynamic solubility turned out to be 13.2 µM (≈ 5.97 µg/mL).

The compound `CSCc1cc(N2CCOCC2)nc(-c2ccccc2)n1` displayed a logD in series [1] (pH 7.4, LogD7.4) of 3.26. Further, the thermodynamic solubility in series [2] is 55 µM (≈ 16.6 µg/mL).

In turn, `Cc1ccc(CO)cc1N(C)c1ccnc(Nc2cc(N3CCCC3)cc(N3CCOCC3)c2)n1` came in with a logD in series [1] (pH 7.4, LogD7.4) of 3.8. Moreover, the thermodynamic solubility in series [2] was determined as 11.5 µM (≈ 5.46 µg/mL).

As for `CC1(C)Oc2ncnc(N)c2N=C1c1ccc([C@H]2CC[C@H](CC(=O)O)CC2)cc1`, the logD in series [1] (pH 7.4, LogD7.4) was determined as 1.32. In addition, the thermodynamic solubility in series [2] worked out at 118 µM (≈ 46.4 µg/mL).

In series [1] (pH 7.4, LogD7.4), `COC(=O)C1=C(C)NC(C)=C(C(=O)OCC(C)C)C1c1ccccc1[N+](=O)[O-]` (centres undefined) [NISOLDIPINE] gave a logD of 3.59. The compound further came in with a thermodynamic solubility in series [2] of 2.2 µM (≈ 0.855 µg/mL).

On to `Cc1ccc(NC(=O)c2ccoc2)cc1-n1cnc2ccc(N3CCN(C)CC3)cc2c1=O`, for which the logD in series [1] (pH 7.4, LogD7.4) was determined as 2.43. The thermodynamic solubility in series [2] was found to be 1290 µM (≈ 571 µg/mL).

Turning to `CCOC(=O)c1ccc(OCCC2CN(c3ccc(C)nn3)C2)cc1`, the logD in series [1] (pH 7.4, LogD7.4) came out at 3.22. Further, the thermodynamic solubility in series [2] is 347 µM (≈ 118 µg/mL).

With `Cc1cccc(Nc2nnc(C(=O)Nc3ccc(N4CCOCC4)nc3)o2)c1`, in series [1] (pH 7.4, LogD7.4), the logD worked out at 3.42. In series [2], the solubility (thermodynamic) amounted to 4.8 µM (≈ 1.83 µg/mL).

`CCCSc1nc2ccc(NC(=O)CCNC(N)=O)cc2s1` came in with a logD in series [1] (pH 7.4, LogD7.4) of 2.9. This compound also gave a thermodynamic solubility in series [2] of 93.3 µM (≈ 31.6 µg/mL).

In the case of `Cc1ncc(-c2ccnc(Nc3ccc(N(C)C)cc3)n2)n1C(C)C`, in series [1] (pH 7.4, LogD7.4), the logD was 3.51. In series [2], the solubility (thermodynamic) turned out to be 100 µM (≈ 33.6 µg/mL).
